# What was measured:
# Assay in all cases: relative viability (nuclei count vs DMSO), 5 days (fraction); higher = more cells survive
# Vorinostat + Trametinib = compound: O=C(CCCCCCC(=O)Nc1ccccc1)NO [Vorinostat] + CC(=O)Nc1cccc(-n2c(=O)n(C3CC3)c(=O)c3c(Nc4ccc(I)cc4F)n(C)c(=O)c(C)c32)c1 [Trametinib] (partner 0.02 µM)
# Outline: (§1)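 The day after seeding in 1536-well plates, lung cancer cell lines were treated by pin tool with a single drug, or with a fixed anchor-drug dose together with five library-drug doses (not always all listed) in √10 steps. After 5 days, a combined fix-and-stain solution (final 0.05% Triton X-100, 1% formaldehyde, 1 ug/ml Hoechst) was added. Nuclei counted on 4× images gave relative viability as treated counts over vehicle counts, reported as the median of duplicate plates.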
# Vorinostat + Dasatinib = compound: O=C(CCCCCCC(=O)Nc1ccccc1)NO [Vorinostat] + Cc1nc(Nc2ncc(C(=O)Nc3c(C)cccc3Cl)s2)cc(N2CCN(CCO)CC2)n1 [Dasatinib] (partner 0.075 µM)
# Outline: as §1
# Vorinostat + Phenformin = compound: O=C(CCCCCCC(=O)Nc1ccccc1)NO [Vorinostat] + N=C(N)NC(=N)NCCc1ccccc1 [Phenformin] (partner 250 µM)
# Outline: as §1
# Vorinostat + OSI-027 = compound: O=C(CCCCCCC(=O)Nc1ccccc1)NO [Vorinostat] + COc1cccc2cc(-c3nc([C@H]4CC[C@H](C(=O)O)CC4)n4ncnc(N)c34)[nH]c12 [OSI-027] (partner 0.5 µM)
# Outline: as §1
Cell Line,relative viability (Vorinostat + Trametinib; first compound 0.253 µM),relative viability (Vorinostat + Trametinib; first compound 0.8 µM),relative viability (Vorinostat + Trametinib; first compound 2.53 µM),relative viability (Vorinostat + Trametinib; first compound 8 µM),relative viability (Vorinostat + Dasatinib; first compound 0.253 µM),relative viability (Vorinostat + Dasatinib; first compound 0.8 µM),relative viability (Vorinostat + Dasatinib; first compound 2.53 µM),relative viability (Vorinostat + Dasatinib; first compound 8 µM),relative viability (Vorinostat + Phenformin; first compound 0.253 µM),relative viability (Vorinostat + Phenformin; first compound 0.8 µM),relative viability (Vorinostat + Phenformin; first compound 2.53 µM),relative viability (Vorinostat + Phenformin; first compound 8 µM),relative viability (Vorinostat + OSI-027; first compound 0.253 µM),relative viability (Vorinostat + OSI-027; first compound 0.8 µM),relative viability (Vorinostat + OSI-027; first compound 2.53 µM),relative viability (Vorinostat + OSI-027; first compound 8 µM)
NCI-H647,0.642,0.497,0.164,0.0479,0.18,0.233,0.0551,0.0337,0.594,0.208,0.0803,0.0343,0.777,0.526,0.19,0.0491
NCI-H1915,0.36,0.291,0.227,0.101,0.324,0.24,0.164,0.108,0.38,0.341,0.181,0.0949,0.632,0.5,0.205,0.152
NCI-H2228,0.67,0.464,0.219,0.101,0.39,0.323,0.127,0.0817,0.388,0.27,0.136,0.102,0.767,0.452,0.203,0.0986
NCI-H2087,0.202,0.158,0.141,0.087,0.94,0.553,0.124,0.0691,0.449,0.331,0.0993,0.0935,0.746,0.417,0.106,0.063
COR-L23,0.79,0.447,0.159,0.0825,0.501,0.291,0.0778,0.0572,0.368,0.322,0.107,0.0712,0.842,0.396,0.151,0.0835
NCI-H2126,0.612,0.533,0.296,0.166,0.608,0.566,0.216,0.158,0.525,0.495,0.244,0.177,0.761,0.572,0.506,0.209
NCI-H1395,1.23,0.964,0.777,0.412,0.395,0.434,0.365,0.344,0.475,0.501,0.401,0.341,0.647,0.597,0.418,0.352
NCI-H727,0.369,0.392,0.27,0.267,0.486,0.423,0.262,0.206,0.964,0.395,0.478,0.255,0.682,0.574,0.477,0.393
LU99A,0.614,0.54,0.33,0.138,0.607,0.591,0.242,0.172,0.952,0.609,0.447,0.185,0.352,0.276,0.195,0.164
NCI-H23,0.606,0.405,0.166,0.129,0.922,0.671,0.41,0.0961,0.844,0.881,0.674,0.101,0.595,0.338,0.329,0.118
NCI-H1993,0.649,0.61,0.548,0.36,0.655,0.626,0.544,0.41,0.436,0.491,0.588,0.464,0.53,0.63,0.568,0.525
COR-L 105,0.546,0.542,0.343,0.288,0.377,0.394,0.259,0.196,0.609,0.54,0.199,0.234,0.839,0.601,0.319,0.182
NCI-H3122,0.168,0.265,0.298,0.118,1.11,0.69,0.0421,0.0399,0.395,0.365,0.0662,0.118,1.26,1.1,0.135,0.129
HCC-15,0.377,0.338,0.147,0.0834,0.748,0.589,0.225,0.06,0.609,0.473,0.22,0.0895,0.698,0.487,0.269,0.0848
NCI-H520,0.959,0.549,0.212,0.124,0.219,0.206,0.179,0.17,0.717,0.482,0.374,0.164,0.361,0.265,0.204,0.217
NCI-H2347,0.242,0.327,0.226,0.203,0.283,0.295,0.271,0.189,0.46,0.351,0.19,0.2,0.363,0.382,0.149,0.164

Cell Line,relative viability (Vorinostat + Trametinib; first compound 0.253 µM),relative viability (Vorinostat + Trametinib; first compound 0.8 µM),relative viability (Vorinostat + Trametinib; first compound 2.53 µM),relative viability (Vorinostat + Trametinib; first compound 8 µM),relative viability (Vorinostat + Dasatinib; first compound 0.253 µM),relative viability (Vorinostat + Dasatinib; first compound 0.8 µM),relative viability (Vorinostat + Dasatinib; first compound 2.53 µM),relative viability (Vorinostat + Dasatinib; first compound 8 µM),relative viability (Vorinostat + Phenformin; first compound 0.253 µM),relative viability (Vorinostat + Phenformin; first compound 0.8 µM),relative viability (Vorinostat + Phenformin; first compound 2.53 µM),relative viability (Vorinostat + Phenformin; first compound 8 µM),relative viability (Vorinostat + OSI-027; first compound 0.253 µM),relative viability (Vorinostat + OSI-027; first compound 0.8 µM),relative viability (Vorinostat + OSI-027; first compound 2.53 µM),relative viability (Vorinostat + OSI-027; first compound 8 µM)
201T,0.734,0.735,0.69,0.267,0.578,0.503,0.381,0.221,0.478,0.446,0.406,0.236,0.837,0.756,0.322,0.118
NCI-H2009,0.336,0.311,0.237,0.119,0.466,0.454,0.168,0.082,0.545,0.496,0.319,0.144,0.793,0.795,0.254,0.0901
NCI-H661,0.767,0.614,0.303,0.301,1.11,0.791,0.247,0.223,0.38,0.3,0.213,0.268,0.79,0.665,0.297,0.245
BEN,0.928,0.659,0.367,0.149,0.306,0.233,0.157,0.06,0.297,0.215,0.146,0.0911,0.287,0.24,0.0754,0.0473
NCI-H1355,0.484,0.331,0.231,0.131,0.825,0.503,0.298,0.169,0.471,0.411,0.333,0.179,0.442,0.309,0.228,0.164
PC-14,0.785,0.483,0.155,0.0461,0.344,0.239,0.0451,0.026,0.713,0.561,0.131,0.0278,1.13,0.832,0.0624,0.0451
NCI-H1650,0.609,0.542,0.175,0.0883,0.397,0.292,0.201,0.141,0.412,0.393,0.164,0.14,0.581,0.36,0.167,0.145
SW 1573,0.709,0.596,0.357,0.0536,0.593,0.789,0.112,0.0513,0.613,0.556,0.355,0.0821,1.1,0.633,0.183,0.051
NCI-H1975,0.395,0.311,0.123,0.106,0.407,0.32,0.162,0.0818,0.431,0.381,0.197,0.127,0.783,0.609,0.231,0.121
HCC-827,0.712,0.642,0.351,0.163,0.299,0.334,0.382,0.314,0.455,0.521,0.453,0.239,0.923,0.853,0.743,0.259
HARA,1.06,0.576,0.18,0.0921,0.311,0.238,0.18,0.0565,0.443,0.364,0.231,0.0679,0.64,0.213,0.155,0.0573
LCLC-103H,0.804,0.7,0.473,0.337,0.504,0.533,0.339,0.134,0.322,0.332,0.267,0.151,0.545,0.502,0.429,0.143
EMC-BAC-2,0.836,0.687,0.292,0.154,0.311,0.204,0.169,0.108,0.523,0.473,0.248,0.163,0.356,0.316,0.173,0.146
NCI-H650,1.24,0.839,0.243,0.111,0.475,0.357,0.196,0.126,0.483,0.375,0.256,0.14,0.514,0.458,0.175,0.129
NCI-H460,0.231,0.0799,0.0298,0.0227,0.577,0.423,0.134,0.0239,0.611,0.4,0.0276,0.016,0.821,0.484,0.0397,0.0148
NCI-H1651,0.869,0.76,0.343,0.062,0.415,0.195,0.0466,0.0608,0.408,0.326,0.0932,0.0635,1,0.607,0.195,0.0644
